Measurements published in the supplement of paper PMC11061612.

Assays:
FU97 (Gastric Carcinoma) [1] = assay: combination Emax (second highest fraction inhibited in the dose matrix, 72 h); higher = more inhibition; extreme values may be limits of the assay
Procedure, shortened: (§1)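 Cell lines in DMEM/F12 or RPMI with 10% FBS were plated in 1536-well plates, held 24 hours at 37°C, 5% CO2, then given two-drug dose matrices for 72 hours (DMSO typically 0.2%). Viability was read by CellTiter-Glo 2.0 luminescence and scaled as inhibition from 0 (vehicle wells) to 1 (blank wells). Combination Emax is the second-highest inhibition in the matrix; Bliss excess is observed combination effect minus expected EA + EB − EA·EB, EA and EB being single-agent effects.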

[2] = test system: BICR22 (Oral Cavity Carcinoma); assay: as above
Procedure, shortened: as §1

[3] = test system: NCI-H1581 (Non-Small Cell Lung Carcinoma); assay: as above
Procedure, shortened: as §1

[4] = test system: PANC-10-05 (Pancreatic Carcinoma); assay: as above
Procedure, shortened: as §1

U-2-OS (Osteosarcoma) [5] = assay: as above
Procedure, shortened: as §1

[6] = test system: NCI-H64 (Small Cell Lung Carcinoma); assay: as above
Procedure, shortened: as §1

[7] = test system: NCI-H1666 (Lung Adenocarcinoma); assay: as above
Procedure, shortened: as §1

IGR-37 (Melanoma) [8] = assay: as above
Procedure, shortened: as §1

[9] = test system: ECC10 (Gastric Carcinoma); assay: as above
Procedure, shortened: as §1

[10] = test system: ONS-76 (Other Solid Carcinomas); assay: as above
Procedure, shortened: as §1

[11] = test system: VCaP (Prostate Carcinoma); assay: as above
Procedure, shortened: as §1

[12] = test system: KARPAS-422 (B-Cell Non-Hodgkin's Lymphoma); assay: as above
Procedure, shortened: as §1

[13] = test system: CCK-81 (Colorectal Carcinoma); assay: as above
Procedure, shortened: as §1

[14] = test system: TT (Thyroid Gland Carcinoma); assay: as above
Procedure, shortened: as §1

NY (Osteosarcoma) [15] = assay: as above
Procedure, shortened: as §1

[16] = test system: COLO-320-HSR (Colorectal Carcinoma); assay: as above
Procedure, shortened: as §1

[17] = test system: CAPAN-2 (Pancreatic Carcinoma); assay: as above
Procedure, shortened: as §1

[18] = test system: NCI-H2066 (Squamous Cell Lung Carcinoma); assay: as above
Procedure, shortened: as §1

FU97 (Gastric Carcinoma) [19] = assay: Bliss excess, mean over the matrix (fraction); higher = more synergy
Procedure, shortened: as §1

[20] = test system: BICR22 (Oral Cavity Carcinoma); assay: as above
Procedure, shortened: as §1

[21] = test system: NCI-H1581 (Non-Small Cell Lung Carcinoma); assay: as above
Procedure, shortened: as §1

[22] = test system: PANC-10-05 (Pancreatic Carcinoma); assay: as above
Procedure, shortened: as §1

U-2-OS (Osteosarcoma) [23] = assay: as above
Procedure, shortened: as §1

[24] = test system: NCI-H64 (Small Cell Lung Carcinoma); assay: as above
Procedure, shortened: as §1

[25] = test system: NCI-H1666 (Lung Adenocarcinoma); assay: as above
Procedure, shortened: as §1

IGR-37 (Melanoma) [26] = assay: as above
Procedure, shortened: as §1

[27] = test system: ECC10 (Gastric Carcinoma); assay: as above
Procedure, shortened: as §1

[28] = test system: ONS-76 (Other Solid Carcinomas); assay: as above
Procedure, shortened: as §1

[29] = test system: VCaP (Prostate Carcinoma); assay: as above
Procedure, shortened: as §1

[30] = test system: KARPAS-422 (B-Cell Non-Hodgkin's Lymphoma); assay: as above
Procedure, shortened: as §1

[31] = test system: CCK-81 (Colorectal Carcinoma); assay: as above
Procedure, shortened: as §1

[32] = test system: TT (Thyroid Gland Carcinoma); assay: as above
Procedure, shortened: as §1

NY (Osteosarcoma) [33] = assay: as above
Procedure, shortened: as §1

[34] = test system: COLO-320-HSR (Colorectal Carcinoma); assay: as above
Procedure, shortened: as §1

[35] = test system: CAPAN-2 (Pancreatic Carcinoma); assay: as above
Procedure, shortened: as §1

[36] = test system: NCI-H2066 (Squamous Cell Lung Carcinoma); assay: as above
Procedure, shortened: as §1
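For Bliss excess, mean over the matrix in this document: after 72 h of two-drug dosing.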

Cc1nc(-c2cn3c(n2)-c2ccc(-c4cnn(C(C)(C)C(N)=O)c4)cc2OCC3)n(C(C)C)n1 [Taselisib] + O=C(Nc1ccc2[nH]nc(-c3ccncc3)c2c1)[C@@H]1CCN(CC(=O)N2CCN(c3ccc(-c4ncccn4)cc3)CC2)C1 [SCH772984] (first compound max 10 µM, 7x7, partner max 5 µM)
combination Emax (FU97 (Gastric Carcinoma) [1]): 0.404
combination Emax [2]: 0.966
combination Emax [3]: 0.635
combination Emax [4]: 0.809
combination Emax (U-2-OS (Osteosarcoma) [5]): 0.993
combination Emax [6]: 0.377
combination Emax [7]: 0.881
combination Emax (IGR-37 (Melanoma) [8]): 0.938
combination Emax [9]: 1
combination Emax [10]: 0.976
combination Emax [11]: 0.587
combination Emax [12]: 0.554
combination Emax [13]: 0.988
combination Emax [14]: 0.568
combination Emax (NY (Osteosarcoma) [15]): 0.564
combination Emax [16]: 0.419
combination Emax [17]: 0.521
combination Emax [18]: 0.681
Bliss excess (FU97 (Gastric Carcinoma) [19]): 0.0139
Bliss excess [20]: 0.116
Bliss excess [21]: 0.178
Bliss excess [22]: 0.0166
Bliss excess (U-2-OS (Osteosarcoma) [23]): 0.112
Bliss excess [24]: 0.0028
Bliss excess [25]: 0.0878
Bliss excess (IGR-37 (Melanoma) [26]): 0.0732
Bliss excess [27]: 0.124
Bliss excess [28]: 0.0608
Bliss excess [29]: -0.0098
Bliss excess [30]: 0.0406
Bliss excess [31]: 0.0528
Bliss excess [32]: 0.106
Bliss excess (NY (Osteosarcoma) [33]): 0.0687
Bliss excess [34]: -0.0441
Bliss excess [35]: 0.0241
Bliss excess [36]: 0.0133

CC1(C)CCC(CN2CCN(c3ccc(C(=O)NS(=O)(=O)c4ccc(NCC5CCOCC5)c([N+](=O)[O-])c4)c(Oc4cnc5[nH]ccc5c4)c3)CC2)=C(c2ccc(Cl)cc2)C1 [Venetoclax] + CS(=O)(=O)CCNCc1ccc(-c2ccc3ncnc(Nc4ccc(OCc5cccc(F)c5)c(Cl)c4)c3c2)o1 [Lapatinib] (first compound max 1 µM, 7x7, partner max 10 µM)
combination Emax (FU97 (Gastric Carcinoma) [1]): 0.813
combination Emax [2]: 0.21
combination Emax [3]: 0.242
combination Emax [4]: 0.353
combination Emax (U-2-OS (Osteosarcoma) [5]): 0.0668
combination Emax [6]: 0.21
combination Emax [7]: 0.568
combination Emax (IGR-37 (Melanoma) [8]): 0.253
combination Emax [9]: 0.94
combination Emax [10]: 0.228
combination Emax [11]: 0.109
combination Emax [12]: 0.884
combination Emax [13]: 0.892
combination Emax [14]: 0.121
combination Emax (NY (Osteosarcoma) [15]): 0.226
combination Emax [16]: 0.169
combination Emax [17]: 0.115
combination Emax [18]: 0.352
Bliss excess (FU97 (Gastric Carcinoma) [19]): 0.0218
Bliss excess [20]: -0.0287
Bliss excess [21]: -0.0136
Bliss excess [22]: -0.0426
Bliss excess (U-2-OS (Osteosarcoma) [23]): -0.044
Bliss excess [24]: -0.0068
Bliss excess [25]: -0.0214
Bliss excess (IGR-37 (Melanoma) [26]): 0.0223
Bliss excess [27]: 0.0105
Bliss excess [28]: -0.0055
Bliss excess [29]: -0.0449
Bliss excess [30]: 0.049
Bliss excess [31]: -0.0352
Bliss excess [32]: -0.0344
Bliss excess (NY (Osteosarcoma) [33]): -0.0008
Bliss excess [34]: -0.0048
Bliss excess [35]: -0.0425
Bliss excess [36]: -0.0203
